Measured values published in PMC2918681 (Biochemical and biophysical research communications, 2010).

Experiments:
[1] = biological target: T1, acyl-coenzyme A:cholesterol acyltransferase 1 (ACAT1) (Homo sapiens, UniProt P35610); assay: [3H]oleate incorporation into cholesteryl oleate in CHO-ACAT1 cells; format: cell-based
T1 sequence (P35610 1-550): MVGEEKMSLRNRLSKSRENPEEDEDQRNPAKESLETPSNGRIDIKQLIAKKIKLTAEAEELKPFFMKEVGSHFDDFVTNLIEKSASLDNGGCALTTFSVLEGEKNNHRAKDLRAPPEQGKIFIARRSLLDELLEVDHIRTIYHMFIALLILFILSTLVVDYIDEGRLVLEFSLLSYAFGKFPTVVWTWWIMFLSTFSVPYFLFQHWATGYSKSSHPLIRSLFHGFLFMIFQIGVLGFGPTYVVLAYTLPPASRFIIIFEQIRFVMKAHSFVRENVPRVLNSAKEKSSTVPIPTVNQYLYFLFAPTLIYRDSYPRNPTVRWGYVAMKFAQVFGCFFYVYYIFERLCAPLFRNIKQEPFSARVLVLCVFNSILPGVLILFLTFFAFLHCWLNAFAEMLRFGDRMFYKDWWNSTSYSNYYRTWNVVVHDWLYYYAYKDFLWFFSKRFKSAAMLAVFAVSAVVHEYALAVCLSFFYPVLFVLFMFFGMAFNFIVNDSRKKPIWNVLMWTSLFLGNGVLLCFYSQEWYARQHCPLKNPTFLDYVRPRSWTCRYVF

[2] = biological target: T2, acyl-coenzyme A:cholesterol acyltransferase 2 (ACAT2) (Homo sapiens, UniProt O75908); assay: [3H]oleate incorporation into cholesteryl oleate in CHO-ACAT2 cells; format: cell-based
T2 sequence (O75908 1-522): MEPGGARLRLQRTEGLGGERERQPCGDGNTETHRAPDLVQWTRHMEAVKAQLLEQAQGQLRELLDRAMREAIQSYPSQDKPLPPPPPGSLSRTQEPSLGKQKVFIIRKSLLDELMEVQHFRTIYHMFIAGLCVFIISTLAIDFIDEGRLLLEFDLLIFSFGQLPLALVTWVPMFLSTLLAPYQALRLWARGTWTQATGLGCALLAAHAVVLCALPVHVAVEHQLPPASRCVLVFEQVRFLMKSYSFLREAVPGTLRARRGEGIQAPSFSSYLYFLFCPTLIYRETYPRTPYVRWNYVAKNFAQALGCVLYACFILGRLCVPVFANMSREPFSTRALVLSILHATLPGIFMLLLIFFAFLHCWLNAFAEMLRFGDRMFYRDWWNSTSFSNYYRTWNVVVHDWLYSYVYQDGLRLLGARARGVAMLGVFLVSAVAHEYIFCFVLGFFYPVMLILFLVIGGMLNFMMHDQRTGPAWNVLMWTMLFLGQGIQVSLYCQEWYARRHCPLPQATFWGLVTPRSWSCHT

Cc1c(C(=O)NN2CCCCC2)nn(-c2ccc(Cl)cc2Cl)c1-c1ccc(Cl)cc1 [Rimonabant]
IC50 [1]: 1500 ± 1200 nM
IC50 [2]: 2200 ± 1100 nM
